Data on 3 molecules can be found in ChEMBL document CHEMBL3407340, “Synthesis, radiolabeling and evaluation of novel 4-oxo-quinoline derivatives as PET tracers for imaging cannabinoid type 2 receptor” (Eur J Med Chem, 2015).

SMILES strings stand for the structures. A value given as a limit tells only on which side of the number the result lay.

This assay concerns the target Cannabinoid receptor 1 (Homo sapiens, UniProt P21554). The assay can be described thus: Displacement of [3H]-CP-55940 from human CB1 receptor transfected in CHOK1 cells after 90 mins by liquid scintillation counting analysis. It is filed as cell-based, CHO-K1. (In a radioligand displacement assay an active substance lowers the binding of a labelled ligand.)

Sequence of Cannabinoid receptor 1 (P21554 whole entry): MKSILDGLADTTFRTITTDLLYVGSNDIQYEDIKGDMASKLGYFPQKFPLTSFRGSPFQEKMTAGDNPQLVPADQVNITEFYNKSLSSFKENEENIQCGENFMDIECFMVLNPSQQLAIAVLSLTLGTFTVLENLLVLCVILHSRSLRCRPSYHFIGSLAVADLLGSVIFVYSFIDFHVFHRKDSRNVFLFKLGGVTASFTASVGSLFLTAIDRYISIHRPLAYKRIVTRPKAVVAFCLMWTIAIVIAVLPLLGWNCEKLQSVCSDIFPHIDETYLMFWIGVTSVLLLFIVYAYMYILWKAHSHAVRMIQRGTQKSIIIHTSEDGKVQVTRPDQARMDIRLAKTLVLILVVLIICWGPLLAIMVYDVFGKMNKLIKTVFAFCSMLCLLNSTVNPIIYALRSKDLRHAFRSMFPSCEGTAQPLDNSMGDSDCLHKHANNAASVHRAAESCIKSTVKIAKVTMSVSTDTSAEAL

As for `CCCCn1cc(C(=O)NC(C)(C)C)c(=O)c2cccc(OC)c21`, the Ki – broadly, the dissociation constant of the complex between target and ligand, obtained from inhibition or displacement – was above 10 µM.
Then `CCOCCn1cc(C(=O)NC23CC4CC(CC(O)(C4)C2)C3)c(=O)c2cccc(OC)c21`, with above 10 µM; and `CCCCn1cc(C(=O)NCC2CC2)c(=O)c2cccc(OC)c21`, with above 10 µM.
